From ChEMBL document CHEMBL4619716, “Machine Learning in Mass Spectrometry: A MALDI-TOF MS Approach to Phenotypic Antibacterial Screening” (2020)
Activity calls are given as the source filed them. The rule behind the calls is not given here.

tested on: Escherichia coli; test: Antimicrobial activity against Escherichia coli ATCC 25922 assessed as induction of changes in mass spectral profile of bacteria by measuring decrease in peak at m/z 6320 and increase in peak at m/z 6405 at 1/16 to 1 times MIC uM by MALDI-TOF MS analysis; assay type: functional, organism-based

SMILES	Activity
CC1(C)S[C@@H]2[C@H](NC(=O)[C@H](N)c3ccc(O)cc3)C(=O)N2[C@H]1C(=O)O	Dose-dependent effect

tested on: Escherichia coli; test: Antimicrobial activity against Escherichia coli ATCC 25922 assessed as induction of changes in mass spectral profile of bacteria 1 times MIC uM by MALDI-TOF MS analysis; assay type: functional, organism-based

SMILES	Activity
CO/N=C(\C(=O)N[C@@H]1C(=O)N2C(C(=O)O)=C(COC(N)=O)CS[C@H]12)c1ccco1	Active
CN[C@H](CC(C)C)C(=O)N[C@H]1C(=O)N[C@@H](CC(N)=O)C(=O)N[C@H]2C(=O)N[C@H]3C(=O)N[C@H](C(=O)N[C@H](C(=O)O)c4cc(O)cc(O)c4-c4cc3ccc4O)[C@H](O)c3ccc(c(Cl)c3)Oc3cc2cc(c3O[C@@H]2O[C@H](CO)[C@@H](O)[C@H](O)[C@H]2O[C@H]2C[C@](C)(N)[C@H](O)[C@H](C)O2)Oc2ccc(cc2Cl)[C@H]1O	Active
CC1(C)S[C@@H]2[C@H](NC(=O)[C@H](N)c3ccc(O)cc3)C(=O)N2[C@H]1C(=O)O	Active
CC1(C)S[C@@H]2[C@H](NC(=O)Cc3ccccc3)C(=O)N2[C@H]1C(=O)O	Active
CO/N=C(\C(=O)N[C@@H]1C(=O)N2C(C(=O)O)=C(COC(C)=O)CS[C@H]12)c1csc(N)n1	Active
